Experimental data: patent US20260124215A1, “METHODS OF TREATMENT OF INTESTINAL INFECTIONS” (THE FRANCIS CRICK INSTITUTE LIMITED, priority 2022, published 2026)

Key:
Cryptosporidium parvum = test: In vitro IC50 curves in Cryptosporidium-infected HCT-8 intestinal epithelial cell monolayers (imaging of total and female parasites); format: cell-based; details: infected intestinal epithelial cells; development measured by % female parasites in total parasites; figure legends
Procedure: HCT-cells (ATCC; CCL-244) were seeded in a 96-well plate at a density of 30,000 cells/well in complete media (RPMI with 10% FCS) and allowed to grow for 48 hours. Cryptosporidium parvum oocysts (Bunchgrass Farms; Dreary Idaho, USA) were prepared for infection by bleach treating (1% sodium hypochlorite) on ice for 5 minutes to remove bacterial contaminants, followed by a wash step and incubation in 0.75% sodium taurocholate for 10 minutes at 37° C. to trigger excystation. Oocysts were resuspended in infection media (RPMI with 1% FCS) and added to cells in 100 uL media (20,000 oocysts/well). A 10 mM solution of lapaquistat acetate (MedChem Express; Cat. No. HY-16274-1 mg) was created using DMSO as the solvent. From this stock, a half-logarithmic (3.16-fold) dilution series was created in infection media, at 2× the intended final concentration. 3 hours post-infection, 100 uL of each drug dilution was added to the wells. Each drug concentration comprised 6 technical replicates. […] The plate was then imaged using a Cytation cell imaging multimode reader (BioTek) to count host nuclei, total number of parasites, and the number of female parasites among them. […]

[1] = system: Cryptosporidium parasites; test: Lapaquistat/Lovastatin combination in Cryptosporidium-infected HCT-8 cells (infection ratio, Opera Phenix); format: cell-based; details: HCT-8, 48 hours of infection, infection ratio = number of parasites/number of host cells, drug alone, read-out: IC50 (ability to limit Cryptosporidium growth)
Procedure: Intestinal epithelial cells (HCT-8) were infected with Cryptosporidium parasites and treated with increasing concentrations of Lapaquistat acetate or Lovastatin, either alone or in combination. After 48 hours of infection, cells were then fixed and stained with a lectin that specifically marks parasites and a Hoechst dye that specifically labels DNA. Cells and parasites were then visualized with an Opera Phenix imaging microscope and infection ratio was calculated as number of parasites/number of host cells.

Cryptosporidium = details: malnourished and immunocompromised patients; cited from earlier work

## F/C(COc1ccc2c(c1)[nH]c1ccccc12)=C1/CN2CCC1CC2 [YM-53601]
Cryptosporidium parvum
  efficacy against parasite growth and parasite development: show efficacy

## CC[C@H](C)C(=O)O[C@H]1C[C@@H](C)C=C2C=C[C@H](C)[C@H](CC[C@@H]3C[C@@H](O)CC(=O)O3)[C@H]21 [Lovastatin]
[1]
  IC50: 4.1 µM

## CC(=O)Oc1ccccc1C(=O)Nc1ncc([N+](=O)[O-])s1 [nitazoxanide]
Cryptosporidium
  efficacy in patients: limited efficacy
